Test results as given in the NIST ThermoML archive (doi:10.1016/j.fluid.2008.11.013).

Key:
[1] = excess molar enthalpy (molar enthalpy of mixing); xn = mol fraction of the nth substance listed; conditions: Liquid, Flow calorimetry
[2] = activity coefficient (dimensionless); of the first substance listed, at infinite dilution; xn = mol fraction of the nth substance listed; conditions: Liquid, Chromatography, x1 = 0

CCCC[N+]1(C)CCCC1.O=S(=O)([N-]S(=O)(=O)C(F)(F)F)C(F)(F)F + C=CCCCC
[1], 363.15 K, 2239 kPa
Conditions	excess molar enthalpy [kJ/mol]
x2 = 0.0587	0.139
x2 = 0.1135	0.268
x2 = 0.1647	0.349
x2 = 0.2579	0.435
x2 = 0.3781	0.459
x2 = 0.4477	0.413
x2 = 0.5104	0.361
x2 = 0.6185	0.279
x2 = 0.7086	0.223
x2 = 0.7849	0.167
x2 = 0.8795	0.0849

CCCCCC[N+]1(C)CCCC1.O=S(=O)([N-]S(=O)(=O)C(F)(F)F)C(F)(F)F + CCCCC
[1], 363.15 K, 2135 kPa
Conditions	excess molar enthalpy [kJ/mol]
x2 = 0.0699	1.11
x2 = 0.1337	0.218
x2 = 0.1921	0.294
x2 = 0.2952	0.402
x2 = 0.341	0.438
x2 = 0.4229	0.404
x2 = 0.4942	0.355
x2 = 0.5568	0.31
x2 = 0.6615	0.234
x2 = 0.7457	0.175
x2 = 0.8147	0.13
x2 = 0.8979	0.0781
x2 = 0.9635	0.0333

CCCCCC[N+]1(C)CCCC1.O=S(=O)([N-]S(=O)(=O)C(F)(F)F)C(F)(F)F + CCCCCC
[1], 363.15 K, 1720 kPa
Conditions	excess molar enthalpy [kJ/mol]
x2 = 0.067	0.123
x2 = 0.1285	0.24
x2 = 0.1852	0.338
x2 = 0.2375	0.42
x2 = 0.2859	0.479
x2 = 0.3309	0.487
x2 = 0.483	0.387
x2 = 0.6514	0.263

C=CCCCCCCCC [1-decene] + CCCCCC[N+]1(C)CCCC1.O=S(=O)([N-]S(=O)(=O)C(F)(F)F)C(F)(F)F
[2]
Conditions	activity coefficient
303.16 K	18.8
313.15 K	18
323.15 K	17.3
333.16 K	16.9

C=CCCCCC [1-heptene] + CCCCCCCC[N+]1(C)CCCC1.O=S(=O)([N-]S(=O)(=O)C(F)(F)F)C(F)(F)F
[2]
Conditions	activity coefficient
313.11 K	4.37
323.14 K	4.22
333.17 K	4.1
343.21 K	4.02

C=CCCCCC [1-heptene] + CCCCCC[N+]1(C)CCCC1.O=S(=O)([N-]S(=O)(=O)C(F)(F)F)C(F)(F)F
[2]
Conditions	activity coefficient
303.14 K	6.5
313.16 K	6.31
323.37 K	6.11
333.16 K	6

C=CCCCCC [1-heptene] + CCCC[N+]1(C)CCCC1.O=S(=O)([N-]S(=O)(=O)C(F)(F)F)C(F)(F)F
[1], 413.15 K, 2239 kPa
Conditions	excess molar enthalpy [kJ/mol]
x1 = 0.0525	0.135
x1 = 0.1022	0.26
x1 = 0.1492	0.376
x1 = 0.2762	0.471
x1 = 0.3509	0.419
x1 = 0.4189	0.382
x1 = 0.481	0.338
x1 = 0.5904	0.26
x1 = 0.6838	0.21
x1 = 0.7643	0.146
x1 = 0.8664	0.0852
x1 = 0.9511	0.0381

C=CCCC [1-pentene] + CCCCCCCC[N+]1(C)CCCC1.O=S(=O)([N-]S(=O)(=O)C(F)(F)F)C(F)(F)F
[2]
Conditions	activity coefficient
303.14 K	2.5
313.13 K	2.43
323.11 K	2.33
343.11 K	2.25
